Measured values reported in PMC6688371, “Effect of the inhaled PDE4 inhibitor CHF6001 on biomarkers of inflammation in COPD” (Respiratory Research, 2019).

Experiments:
[1] = Stability of CHF6001 in human plasma (bioanalytical validation); assay type: in vitro ADME
Experimental: Effect of CHF6001 on inflammatory biomarkers – Additional file 1 to –90C. The plasma concentration of CHF6001 was evaluated using a LC-MS/MS method following solid phase extraction. Validation procedures again followed those outlined for the analysis of biomarkers above. The bioanalytical method wa s found to be linear over the calibration range of 10 to 20,000 pg/mL. The precision and accuracy of the method was found to be within the target limits of within 20% at the lower limit of quantification 10 pg/mL and within 15% at all other concentrations.
The recovery of CHF6001 from human plasma was consistent across the analytical range , with no significant matrix effects. […]
for up to 24 h at the sample processing temperature (nominally +20C), a fter storage for 184 days in a freezer (nominally –80C) and after four freeze-thaw cycles at nominally – 80C / +20C. Therefore the method was considered to be suitable for measuring concentrations of CHF6001 in human plasma samples from regulatory studies.
The study was approved by two centralised ethics committees on behalf of the sites:
• UK: Health Research Authority, North West, Greater Manchester South Research Ethics Committee, Manchester (approval reference 16/NW/0553).
• Germany: Ethics Committee of Hesse Medical Association, Frankfurt am Main (approval reference FF 98/2016).
Patients had to meet all the following inclusion criteria to be eligible for enrolment into the […]
1. Written informed consent obtained prior to any study-related procedures;
2. Male or female aged ≥40 years;
3. A female was eligible to enter the study if they were of non-childbearing potential, i.e. physiologically incapable of becoming pregnant (e.g. postmenopausal women defined as being amenorrhoeic for ≥12 consecutive months without an alternative medical cause. If indicated, as per Investigator’s request, post -menopausal status

patients with COPD [2] = test: Safety and tolerability (adverse events, vital signs, ECG, laboratory data)
Text: The Safety population is all randomised patients who received at least one dose of study medication.

patients with COPD [3] = test: Forced oscillometry; assay type: in vivo, human; details: for Difference in inspiratory resistance (5-19Hz), adjusted mean difference vs placebo (95% CI) / Expiratory reactance (5 Hz), adjusted mean difference vs placebo (95% CI) / Expiratory resistance (5 Hz), adjusted mean difference vs placebo (95% CI) / Expiratory resistance (19 Hz), adjusted mean difference vs placebo (95% CI) / Inspiratory reactance (5 Hz), adjusted mean difference vs placebo (95% CI) / Inspiratory resistance (5 Hz), adjusted mean difference vs placebo (95% CI) / Inspiratory resistance (19 Hz), adjusted mean difference vs placebo (95% CI) / Percentage flow limited breaths, adjusted mean difference vs placebo (95% CI) / Tidal expiratory flow limitation, adjusted mean difference vs placebo (95% CI) / Total reactance (5 Hz), adjusted mean difference vs placebo (95% CI) / Total resistance (5 Hz), adjusted mean difference vs placebo (95% CI) / Total resistance (19 Hz), adjusted mean difference vs placebo (95% CI): change from baseline to Day 32
Experimental: Induced sputum was collected pre-dose on Day 1 of each treatment period (for the first treatment period, the sample could be collected up to 10 days prior to Day 1), and 2 h post-dose on Days 20, 26 and 32 (see the Additional file 1 for further detail on sputum and blood analysis methods). Blood samples were taken pre-dose on Day 1, and pre-dose and at 30 min, and 1, 1.5, 2, 3, 4, 6, 8 and 12 h post-dose on Day 32. Other pre-dose assessments on Days 1 and 32 were spirometry (forced expiratory volume in 1 s [FEV1] and forced vital capacity [FVC]), forced oscillometry, and COPD Assessment Test (CAT), with Baseline Dyspnea Index recorded on Day 1 and Transition Dyspnea Index (TDI) on Day 32. Central and peripheral airways mechanics were assessed using forced oscillometry, with the following values determined: inspiratory and expiratory resistance (at 5 and 19 Hz), inspiratory and expiratory reactance, tidal expiratory flow limitation and the percentage of flow limited breaths.
The mean changes from baseline to Day 32 for lung function, CAT and TDI were analysed using similar methodology to sputum biomarkers, but were not log-transformed. […] The sputum concentration of CHF6001 was also evaluated at 2 h post-dose, using the mean of all values measured on Days 20, 26 and 32. Pharmacokinetic variables were summarised using geometric means and coefficients of variation, except for Tmax,ss, which is presented as median (range).

[4] = either dose (800 or 1600 μg BID)

What does the source list for CS(=O)(=O)Nc1ccc(C(=O)O[C@@H](Cc2c(Cl)c[n+]([O-])cc2Cl)c2ccc(OC(F)F)c(OCC3CC3)c2)cc1OCC1CC1 [CHF6001]?
Storage time found stable in human plasma ([1]; freezer (nominally –80C)): 184 days; Freeze-thaw cycles found stable in human plasma ([1]; nominally –80C / +20C): four; Time found stable in human plasma ([1]; sample processing temperature (nominally +20C)): up to 24 h; Adverse events (patients with COPD [2]; 800 μg BID (N = 58)): 30 (51.7) patients (%); Adverse events leading to study drug withdrawal (patients with COPD [2]; 800 μg BID (N = 58)): 3 (5.2) patients (%); Adverse events with a fatal outcome (patients with COPD [2]; 800 μg BID (N = 58)): 0 patients (%); Back pain (patients with COPD [2]; 800 μg BID (N = 58)): 4 (6.9) patients (%); Cough (patients with COPD [2]; 800 μg BID (N = 58)): 1 (1.7) patients (%); Diarrhoea (patients with COPD [2]; 800 μg BID (N = 58)): 3 (5.2) patients (%); Drug-related adverse events (patients with COPD [2]; 800 μg BID (N = 58)): 1 (1.7) patients (%); Drug-related adverse events: Dry mouth (patients with COPD [2]; 800 μg BID (N = 58)): 0 patients (%); Drug-related adverse events: Sleep disorders (patients with COPD [2]; 800 μg BID (N = 58)): 1 (1.7) patients (%); Drug-related serious adverse events (patients with COPD [2]; 800 μg BID (N = 58)): 0 patients (%); Fatigue (patients with COPD [2]; 800 μg BID (N = 58)): 1 (1.7) patients (%); Headache (patients with COPD [2]; 800 μg BID (N = 58)): 1 (1.7) patients (%); Nasopharyngitis (patients with COPD [2]; 800 μg BID (N = 58)): 5 (8.6) patients (%); Oropharyngeal pain (patients with COPD [2]; 800 μg BID (N = 58)): 3 (5.2) patients (%); Serious adverse events (patients with COPD [2]; 800 μg BID (N = 58)): 2 (3.4) patients (%); Severe adverse events (patients with COPD [2]; 800 μg BID (N = 58)): 0 patients (%); Tension headache (patients with COPD [2]; 800 μg BID (N = 58)): 1 (1.7) patients (%); Toothache (patients with COPD [2]; 800 μg BID (N = 58)): 3 (5.2) patients (%); Patients reporting gastrointestinal adverse events (patients with COPD [2]; 800 μg BID, seven patients): 12.1%; Adverse events (patients with COPD [2]; 1600 μg BID (N = 59)): 33 (55.9) patients (%); Adverse events leading to study drug withdrawal (patients with COPD [2]; 1600 μg BID (N = 59)): 2 (3.4) patients (%); Adverse events with a fatal outcome (patients with COPD [2]; 1600 μg BID (N = 59)): 0 patients (%); Back pain (patients with COPD [2]; 1600 μg BID (N = 59)): 1 (1.7) patients (%); Cough (patients with COPD [2]; 1600 μg BID (N = 59)): 3 (5.1) patients (%); Diarrhoea (patients with COPD [2]; 1600 μg BID (N = 59)): 1 (1.7) patients (%); Drug-related adverse events (patients with COPD [2]; 1600 μg BID (N = 59)): 1 (1.7) patients (%); Drug-related adverse events: Dry mouth (patients with COPD [2]; 1600 μg BID (N = 59)): 1 (1.7) patients (%); Drug-related adverse events: Sleep disorders (patients with COPD [2]; 1600 μg BID (N = 59)): 0 patients (%); Drug-related serious adverse events (patients with COPD [2]; 1600 μg BID (N = 59)): 0 patients (%); Fatigue (patients with COPD [2]; 1600 μg BID (N = 59)): 3 (5.1) patients (%); Headache (patients with COPD [2]; 1600 μg BID (N = 59)): 7 (11.9) patients (%); Nasopharyngitis (patients with COPD [2]; 1600 μg BID (N = 59)): 6 (10.2) patients (%); Oropharyngeal pain (patients with COPD [2]; 1600 μg BID (N = 59)): 2 (3.4) patients (%); Serious adverse events (patients with COPD [2]; 1600 μg BID (N = 59)): 2 (3.4) patients (%); Severe adverse events (patients with COPD [2]; 1600 μg BID (N = 59)): 1 (1.7) patients (%); Tension headache (patients with COPD [2]; 1600 μg BID (N = 59)): 3 (5.1) patients (%); Toothache (patients with COPD [2]; 1600 μg BID (N = 59)): 1 (1.7) patients (%); Patients reporting gastrointestinal adverse events (patients with COPD [2]; 1600 μg BID, six patients): 10.2%; Haematology or biochemistry data, between treatments (patients with COPD [2]; 800 or 1600 μg BID and placebo): no major differences; Systolic or diastolic blood pressure, heart rate or Fridericia's corrected QT interval vs placebo (patients with COPD [2]; [4]): no differences; Difference in inspiratory resistance (5-19Hz), adjusted mean difference vs placebo (95% CI) (patients with COPD [3]; 800 µg BID): –0.09 (–0.32 to 0.13) cmH2O/(L/s); Expiratory reactance (5 Hz), adjusted mean difference vs placebo (95% CI) (patients with COPD [3]; 800 µg BID): 0.14 (–0.49 to 0.77) cmH2O/(L/s); Expiratory resistance (5 Hz), adjusted mean difference vs placebo (95% CI) (patients with COPD [3]; 800 µg BID): –0.15 (–0.45 to 0.15) cmH2O/(L/s); Expiratory resistance (19 Hz), adjusted mean difference vs placebo (95% CI) (patients with COPD [3]; 800 µg BID): –0.04 (–0.23 to 0.15) cmH2O/(L/s); Inspiratory reactance (5 Hz), adjusted mean difference vs placebo (95% CI) (patients with COPD [3]; 800 µg BID): 0.18 (0.00 to 0.36) cmH2O/(L/s); Inspiratory resistance (5 Hz), adjusted mean difference vs placebo (95% CI) (patients with COPD [3]; 800 µg BID): –0.07 (–0.33 to 0.20) cmH2O/(L/s); Inspiratory resistance (19 Hz), adjusted mean difference vs placebo (95% CI) (patients with COPD [3]; 800 µg BID): 0.06 (–0.12 to 0.24) cmH2O/(L/s); Percentage flow limited breaths, adjusted mean difference vs placebo (95% CI) (patients with COPD [3]; 800 µg BID): 0.95 (–8.51 to 10.41); Tidal expiratory flow limitation, adjusted mean difference vs placebo (95% CI) (patients with COPD [3]; 800 µg BID): 0.03 (–0.56 to 0.63); Total reactance (5 Hz), adjusted mean difference vs placebo (95% CI) (patients with COPD [3]; 800 µg BID): 0.13 (–0.30 to 0.56) cmH2O/(L/s); Total resistance (5 Hz), adjusted mean difference vs placebo (95% CI) (patients with COPD [3]; 800 µg BID): –0.13 (–0.39 to 0.13) cmH2O/(L/s); Total resistance (19 Hz), adjusted mean difference vs placebo (95% CI) (patients with COPD [3]; 800 µg BID): –0.00 (–0.18 to 0.17) cmH2O/(L/s); Difference in inspiratory resistance (5-19Hz), adjusted mean difference vs placebo (95% CI) (patients with COPD [3]; 1600 µg BID): 0.05 (–0.18 to 0.27) cmH2O/(L/s); Expiratory reactance (5 Hz), adjusted mean difference vs placebo (95% CI) (patients with COPD [3]; 1600 µg BID): 0.082 (–0.55 to 0.72) cmH2O/(L/s); Expiratory resistance (5 Hz), adjusted mean difference vs placebo (95% CI) (patients with COPD [3]; 1600 µg BID): 0.21 (–0.09 to 0.52) cmH2O/(L/s); Expiratory resistance (19 Hz), adjusted mean difference vs placebo (95% CI) (patients with COPD [3]; 1600 µg BID): 0.14 (–0.05 to 0.33) cmH2O/(L/s); Inspiratory reactance (5 Hz), adjusted mean difference vs placebo (95% CI) (patients with COPD [3]; 1600 µg BID): 0.14 (–0.04 to 0.32) cmH2O/(L/s); Inspiratory resistance (5 Hz), adjusted mean difference vs placebo (95% CI) (patients with COPD [3]; 1600 µg BID): 0.23 (–0.03 to 0.50) cmH2O/(L/s); Inspiratory resistance (19 Hz), adjusted mean difference vs placebo (95% CI) (patients with COPD [3]; 1600 µg BID): 0.17 (–0.01 to 0.35) cmH2O/(L/s); Percentage flow limited breaths, adjusted mean difference vs placebo (95% CI) (patients with COPD [3]; 1600 µg BID): –2.06 (–11.66 to 7.53); Tidal expiratory flow limitation, adjusted mean difference vs placebo (95% CI) (patients with COPD [3]; 1600 µg BID): 0.05 (–0.55 to 0.65); Total reactance (5 Hz), adjusted mean difference vs placebo (95% CI) (patients with COPD [3]; 1600 µg BID): 0.03 (–0.41 to 0.47) cmH2O/(L/s); Total resistance (5 Hz), adjusted mean difference vs placebo (95% CI) (patients with COPD [3]; 1600 µg BID): 0.22 (–0.04 to 0.49) cmH2O/(L/s); Total resistance (19 Hz), adjusted mean difference vs placebo (95% CI) (patients with COPD [3]; 1600 µg BID): 0.15 (–0.03 to 0.32) cmH2O/(L/s); Oscillometry parameters vs placebo (patients with COPD [3]; [4]): no consistent treatment–placebo differences
